Test [1] deals with T1, SMYD3 (Homo sapiens (Human), UniProt Q9H7B4). In words: SMYD3 cell assay (Trimethyl-MEKK2 In-Cell Western in 293T/17 cells). It counts as cell-based. In short, it runs like this:
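In-Cell Western ratio of trimethyl-Lys260 MEKK2 to anti-flag signal; percent inhibition from DMSO and maximum-inhibition controls, IC50 by non-linear regression, triplicates.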

Test [2] addresses T1, SMYD3. Put plainly: SMYD3 biochemical assay (SPA, 3H-SAM methylation of MEKK2 protein substrate). Conditions: read-out: SMYD3 Biochem IC50 (μM)*. The method in brief:
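Native full-length human SMYD3 (E. coli-expressed, tags removed) was preincubated with compound for 30 min at room temperature in 25 mM Tris-Cl pH 8.0, 1 mM TCEP, 0.005% BSG, 0.005% Tween 20. Reaction was started with 3H-SAM plus GST-MEKK2, quenched with 100 uM unlabeled SAM, and read by SPA scintillation counting.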

Setting [3] is: 293T/17 cells, read-out: SMYD3 Cell IC50 (μM)*.

The results in this text go back to patent US10577363B2, “Substituted piperidine compounds” (EPIZYME, INC., priority 2014, dated 2020).

T1 sequence (Q9H7B4 whole entry): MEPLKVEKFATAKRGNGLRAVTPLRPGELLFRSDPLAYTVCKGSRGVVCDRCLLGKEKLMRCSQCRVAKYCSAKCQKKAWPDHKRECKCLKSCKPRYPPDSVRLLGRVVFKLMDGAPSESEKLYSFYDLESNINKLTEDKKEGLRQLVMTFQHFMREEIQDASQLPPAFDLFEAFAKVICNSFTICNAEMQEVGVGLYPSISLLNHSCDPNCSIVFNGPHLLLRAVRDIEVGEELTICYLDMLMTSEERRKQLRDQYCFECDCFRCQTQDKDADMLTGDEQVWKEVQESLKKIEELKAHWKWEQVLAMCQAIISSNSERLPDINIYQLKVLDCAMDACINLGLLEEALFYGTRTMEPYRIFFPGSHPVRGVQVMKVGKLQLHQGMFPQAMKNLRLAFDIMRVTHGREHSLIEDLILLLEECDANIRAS

Turning to `C[C@H]1CN(S(=O)(=O)CCCN)CC[C@@H]1NC(=O)c1cc(C2CC2)on1` [compound 385, N-((3S,4S)-1-((3-aminopropyl)sulfonyl)-3-methylpiperidin-4-yl)-5-cyclopropylisoxazole-3-carboxamide], the IC50 against SMYD3 [1] was 1.23 µM; at SMYD3 [2] it was 0.0882 µM.
As to `C[C@@H]1CN(S(=O)(=O)CCCN)CC[C@@H]1NC(=O)c1cc(C2CC2)on1` [compound 387, N-((3R,4S)-1-((3-aminopropyl)sulfonyl)-3-methylpiperidin-4-yl)-5-cyclopropylisoxazole-3-carboxamide], the half-inhibitory concentration (IC50) was 0.788 µM against SMYD3 [1] and 0.07 µM on SMYD3 [2].
Consider `NCCCS(=O)(=O)N1CC[C@@H](NC(=O)c2cc(C3CC3)on2)C[C@H]1Cc1ccccc1` [compound 390, N-((2R,4R)-1-((3-aminopropyl)sulfonyl)-2-benzylpiperidin-4-yl)-5-cyclopropylisoxazole-3-carboxamide], for which the results for the IC50 on SMYD3 [1] (setting [3]) and at SMYD3 [2] were 2.97 µM and 0.464 µM, respectively.
For `C[C@H]1C[C@@H](NC(=O)c2cc(C3CC3)on2)CCN1C(=O)CC1(CN)CCCCC1` [compound 391, N-((2S,4S)-1-(2-(1-(aminomethyl)cyclohexyl)acetyl)-2-methylpiperidin-4-yl)-5-cyclopropylisoxazole-3-carboxamide] the same measures were greater than 10 µM and 5.72 µM.
Take `NCCS(=O)(=O)N1[C@@H]2CC[C@H]1C[C@H](NC(=O)c1cc(C3CC3)on1)C2` [compound 395, N-((1R,3s,5S)-8-((2-aminoethyl)sulfonyl)-8-azabicyclo[3.2.1]octan-3-yl)-5-cyclopropylisoxazole-3-carboxamide]: the IC50 at SMYD3 [1] (setting [3]) turned out to be 3.16 µM; on SMYD3 [2], 0.611 µM.
For the compound `NCCS(=O)(=O)N1[C@@H]2CC[C@H]1C[C@@H](NC(=O)c1cc(C3CC3)on1)C2` [compound 396, N-((1R,3r,5S)-8-((2-aminoethyl)sulfonyl)-8-azabicyclo[3.2.1]octan-3-yl)-5-cyclopropylisoxazole-3-carboxamide], the results for the IC50 at SMYD3 [1] (setting [3]) and on SMYD3 [2] were 0.375 µM and 0.0417 µM, respectively.
Consider `CC(=O)Nc1ccc(S(=O)(=O)N2CC[C@H](NC(=O)c3cc(C4CC4)on3)C[C@H]2C)cc1` [compound 397, N-((2R,4S)-1-((4-acetamidophenyl)sulfonyl)-2-methylpiperidin-4-yl)-5-cyclopropylisoxazole-3-carboxamide], for which the IC50 at SMYD3 [1] (setting [3]) and on SMYD3 [2] was greater than 10 µM throughout.
Consider `C[C@H]1C[C@@H](NC(=O)c2cc(C3CC3)on2)CCN1S(=O)(=O)c1cccc(C#N)c1` [compound 398, N-((2S,4S)-1-((3-cyanophenyl)sulfonyl)-2-methylpiperidin-4-yl)-5-cyclopropylisoxazole-3-carboxamide], for which the IC50 at SMYD3 [1] (setting [3]) came to 1.21 µM; at SMYD3 [2], 0.212 µM.
Take `O=C(N[C@@H]1C[C@H]2CC[C@@H](C1)N2S(=O)(=O)c1ccccc1)c1cc(C2CC2)on1` [compound 399, 5-cyclopropyl-N-((1R,3s,5S)-8-(phenylsulfonyl)-8-azabicyclo[3.2.1]octan-3-yl)isoxazole-3-carboxamide]: the IC50 at SMYD3 [1] (setting [3]) worked out at 2.87 µM; at SMYD3 [2] it was 0.833 µM.
For `O=C(N[C@H]1C[C@H]2CC[C@@H](C1)N2S(=O)(=O)c1ccccc1)c1cc(C2CC2)on1` [compound 400, 5-cyclopropyl-N-((1R,3r,5S)-8-(phenylsulfonyl)-8-azabicyclo[3.2.1]octan-3-yl)isoxazole-3-carboxamide] the same measures were greater than 10 µM and 4.13 µM.
For the compound `O=C(NC1CC2CCCC(C1)N2S(=O)(=O)c1ccccc1)c1cc(C2CC2)on1` (stereo not drawn) [compound 401, 5-cyclopropyl-N-(9-(phenylsulfonyl)-9-azabicyclo[3.3.1]nonan-3-yl)isoxazole-3-carboxamide], the IC50 at SMYD3 [1] (setting [3]) is 2.95 µM; on SMYD3 [2], 0.793 µM.
For `CC(=O)Nc1ccc(S(=O)(=O)N2C3CCCC2CC(NC(=O)c2cc(C4CC4)on2)C3)cc1` (stereo not drawn) [compound 402, N-(9-((4-acetamidophenyl)sulfonyl)-9-azabicyclo[3.3.1]nonan-3-yl)-5-cyclopropylisoxazole-3-carboxamide] the same measures were greater than 10 µM and 4.92 µM.
On to `CC(=O)Nc1ccc(S(=O)(=O)N2[C@@H]3CC[C@H]2C[C@@H](NC(=O)c2cc(C4CC4)on2)C3)cc1` [compound 403, N-((1R,3r,5S)-8-((4-acetamidophenyl)sulfonyl)-8-azabicyclo[3.2.1]octan-3-yl)-5-cyclopropylisoxazole-3-carboxamide], for which the IC50 on SMYD3 [1] (setting [3]) was greater than 10 µM; at SMYD3 [2], 10 µM.
Consider `O=C(N[C@@H]1C[C@H]2CC[C@@H](C1)N2S(=O)(=O)c1ccc2[nH]c(=O)oc2c1)c1cc(C2CC2)on1` [compound 404, 5-cyclopropyl-N-((1R,3s,5S)-8-((2-oxo-2,3-dihydrobenzo[d]oxazol-6-yl)sulfonyl)-8-azabicyclo[3.2.1]octan-3-yl)isoxazole-3-carboxamide], for which the IC50 on SMYD3 [1] (setting [3]) is 2.92 µM; at SMYD3 [2] it was 1.4 µM.
For `O=C(N[C@H]1C[C@H]2CC[C@@H](C1)N2S(=O)(=O)c1ccc2[nH]c(=O)oc2c1)c1cc(C2CC2)on1` [compound 405, 5-cyclopropyl-N-((1R,3r,5S)-8-((2-oxo-2,3-dihydrobenzo[d]oxazol-6-yl)sulfonyl)-8-azabicyclo[3.2.1]octan-3-yl)isoxazole-3-carboxamide] the same measures were greater than 10 µM and 9.39 µM.
For `O=C(N[C@@H]1CCN(S(=O)(=O)CCN2CCCC2)[C@H](Cc2ccccc2)C1)c1cc(C2CC2)on1` [compound 407, N-((2R,4R)-2-benzyl-1-((2-(pyrrolidin-1-yl)ethyl)sulfonyl)piperidin-4-yl)-5-cyclopropylisoxazole-3-carboxamide] the same measures were greater than 10 µM and 3.81 µM.
For `O=C(NC1CC2CCCC(C1)N2S(=O)(=O)CCCN1CCOCC1)c1cc(C2CC2)on1` (stereo not drawn) [compound 410, 5-cyclopropyl-N-(9-((3-morpholinopropyl)sulfonyl)-9-azabicyclo[3.3.1]nonan-3-yl)isoxazole-3-carboxamide] the same measures were greater than 10 µM and 6.32 µM.
Turning to `COCCN(C)c1ccc(S(=O)(=O)N2CC[C@H](NC(=O)c3cc(C4CC4)on3)C[C@@H]2C)cn1` [compound 412, 5-cyclopropyl-N-((2S,4S)-1-((6-((2-methoxyethyl)(methyl)amino)pyridin-3-yl)sulfonyl)-2-methylpiperidin-4-yl)isoxazole-3-carboxamide], the IC50 on SMYD3 [1] (setting [3]) was found to be 8.22 µM; at SMYD3 [2], 2.12 µM.
For `COCCNc1ccc(S(=O)(=O)N2CC[C@H](NC(=O)c3cc(C4CC4)on3)C[C@@H]2C)cn1` [compound 413, 5-cyclopropyl-N-((2S,4S)-1-((6-((2-methoxyethyl)amino)pyridin-3-yl)sulfonyl)-2-methylpiperidin-4-yl)isoxazole-3-carboxamide] the same measures were 4.51 µM and 1.48 µM.
For `C[C@H]1C[C@@H](NC(=O)c2cc(C3CC3)on2)CCN1S(=O)(=O)c1ccc(N(C)CCN2CCOCC2)nc1` [compound 414, 5-cyclopropyl-N-((2S,4S)-2-methyl-1-((6-(methyl(2-morpholinoethyl)amino)pyridin-3-yl)sulfonyl)piperidin-4-yl)isoxazole-3-carboxamide] the same measures were 2.61 µM and 0.889 µM.
For `C[C@H]1C[C@H](NC(=O)c2cc(C3CC3)on2)CCN1S(=O)(=O)c1ccc(NCCN)nc1` [compound 415, N-((2S,4R)-1-((6-((2-aminoethyl)amino)pyridin-3-yl)sulfonyl)-2-methylpiperidin-4-yl)-5-cyclopropylisoxazole-3-carboxamide] the same measures were 5.62 µM and 0.135 µM.
With `C[C@H]1CN(C(=O)[C@H]2CC[C@H](N)CC2)[C@@H](C)C[C@H]1NC(=O)c1cc(C2CC2)on1` [compound 419, N-((2S,4R,5S)-1-((1r,4S)-4-aminocyclohexane-1-carbonyl)-2,5-dimethylpiperidin-4-yl)-5-cyclopropylisoxazole-3-carboxamide], the figures for the IC50 on SMYD3 [1] (setting [3]) and at SMYD3 [2] were greater than 10 µM and 1.95 µM, respectively.
For `NCCCS(=O)(=O)N1CC[C@H](NC(=O)c2cc(C3CC3)on2)C[C@H]1Cc1ccccc1` [compound 423, N-((2R,4S)-1-((3-aminopropyl)sulfonyl)-2-benzylpiperidin-4-yl)-5-cyclopropylisoxazole-3-carboxamide] the same measures were 1.86 µM and 0.25 µM.
For `NCCCS(=O)(=O)N1CC[C@H](NC(=O)c2cc(C3CC3)on2)C[C@@H]1Cc1ccccc1` [compound 424, N-((2S,4S)-1-((3-aminopropyl)sulfonyl)-2-benzylpiperidin-4-yl)-5-cyclopropylisoxazole-3-carboxamide] the same measures were 1.8 µM and 0.228 µM.
Take `CC1CC(NC(=O)c2cc(C3CC3)on2)CCN1C(=O)Cc1ncc[nH]1` (stereo not drawn) [compound 427, N-(1-(2-(1H-imidazol-2-yl)acetyl)-2-methylpiperidin-4-yl)-5-cyclopropylisoxazole-3-carboxamide]: the IC50 at SMYD3 [1] (setting [3]) and at SMYD3 [2] was greater than 10 µM throughout.
`C[C@@H]1C[C@H](NC(=O)c2cc(C3CC3)on2)CCN1S(=O)(=O)c1c[nH]cn1` [compound 428, N-((2R,4R)-1-((1H-imidazol-4-yl)sulfonyl)-2-methylpiperidin-4-yl)-5-cyclopropylisoxazole-3-carboxamide]: the IC50 is 2.58 µM at SMYD3 [1] (setting [3]) and 0.732 µM on SMYD3 [2].
For `CC(=O)Nc1ccc(S(=O)(=O)N2[C@@H]3CC[C@H]2C[C@H](NC(=O)c2cc(C4CC4)on2)C3)cc1` [compound 430, N-((1R,3s,5S)-8-((4-acetamidophenyl)sulfonyl)-8-azabicyclo[3.2.1]octan-3-yl)-5-cyclopropylisoxazole-3-carboxamide] the same measures were 4.52 µM and 3.66 µM.

One may read the IC50 as the concentration that gives 50% inhibition.
